Results on 86 molecules are retold here after a melting point compilation (Tetko et al.; mined from patent text by program, amines drawn as free bases though some values may be those of a salt).

A word on the melting point: it is the temperature, or range, at which the solid turns liquid.

As to `Cc1cc(OCc2coc(/C=C/c3ccc(OC(F)(F)F)cc3)n2)ccc1CCCCc1cn(C(c2ccccc2)(c2ccccc2)c2ccccc2)nn1`, the melting point was 135 to 136 °C.
For `N#CCCn1cccc1-c1ccc2cnc(Nc3ccc(N4CCOCC4)cc3)nn12`, the melting point was 85 to 89 °C.
In turn, `O=S(=O)(NC(CCCN1CCN(c2ncc(F)cn2)CC1)c1ccc(F)cc1)c1ccc(F)cc1` (stereo unspecified) showed a melting point of 128 to 129 °C.
In the case of `CSc1nnc2c(=O)[nH]c(-c3ccccc3OCC3CC3)nc2n1`, the melting point was 235 to 236 °C.
In the case of `O=Cc1c2ccccc2c(C=O)c2cc(Cl)ccc12`, the melting point lay within 192 to 195 °C.
Next, `N=C(NO)c1ccc(-c2ccc(-c3ccc(C(=N)NO)o3)o2)cc1`: 205 to 206 °C.
The molecule `C=Cc1c(C(=O)O)cccc1[N+](=O)[O-]` had a melting point of 166 to 167 °C.
Molecule `CCc1ccccc1-c1cccc2[nH]c(C(=O)O)cc12` gave a melting point of 230 to 233 °C.
Molecule `O=c1c(N2CCN(c3ccncc3)CC2)cn(Cc2ccccc2)c2cc(O)ccc12` gave a melting point of 141 to 146 °C.
Next, `Cn1nnnc1SCCCSc1nnnn1C`: 142 to 144 °C; `CCCC1=C(C(=O)OCC)C(c2csc3ccccc23)c2c[nH]nc2N1` (stereo unspecified): 222 °C.
In turn, `COC(=O)ON(C(N)=O)C(C)c1cc2ccccc2s1` (stereo unspecified) registered a melting point of 124 to 125 °C.
In the case of `Cc1nnc(-c2ccccc2F)n2nc(OCc3ncn(C)n3)c(-c3ccsc3)c12` it was 214 to 217 °C; in that of `CCCCc1nc2cccc(C(=O)OC)c2n1Cc1ccc(-c2ccccc2N2CC(=O)NC2=O)cc1`, 149 to 151 °C; in that of `O=C1CNCc2[nH]c3ccccc3c21`, 220 to 233 °C.
Next, `CCCc1ccccc1OCCCOc1cccc(OC(=CC(=O)O)C(=O)O)c1CC`: 104 to 105 °C.
In the case of `CCOc1nn(Cc2ccc(Cl)cc2Cl)cc1CCCOc1cc(CCC(=O)O)n(-c2ccccc2)n1` it was 132 to 133 °C.
As to `O=C(NCc1ccccc1)c1ccnc(N2CCN(Cc3ccncc3)C2=O)c1`, the melting point fell in the range of 154 to 156 °C.
`CN(Sc1ccccc1[N+](=O)[O-])C(=O)Nc1ccc(Cl)cc1` showed a melting point of 157 to 158 °C.
In the case of `O=C(c1cc(=O)c2ccc(OCc3ccccc3)cc2[nH]1)N1CCC(Cc2ccccc2)CC1` it was 228 °C; in that of `CC(C)(C)OC(=O)C[C@@H](NC(=O)/C=C/S(=O)(=O)c1ccccc1)C(=O)OC(C)(C)C`, 168 to 169 °C.
`O=C(O)CCCCCSc1ccc(O)cc1` displayed a melting point of 92 to 94 °C.
In the case of `O=C(Nc1cccc2c1C(=O)c1c-2n[nH]c1C1CCN(C(=O)N2CCNCC2)CC1)NN1CCOCC1`, the melting point lay within 195 to 197 °C.
In the case of `O=C(Cc1ccc(Cl)c(Cl)c1)NCc1ccc2c(c1)CN(C1CCC(=O)NC1=O)C2=O` (stereo unspecified) it was 191 to 193 °C; in that of `CC(=O)NCCn1ccc2ncnc(Nc3ccc(Oc4cccc5sncc45)c(Cl)c3)c21`, 222 to 224 °C; in that of `Cc1c(C(=O)O)ccc(S(C)(=O)=O)c1N`, 197 to 198 °C.
In the case of `CCOC(=O)CSc1ccc(-c2nc3cnccc3[nH]2)cc1` it was 230 °C; in that of `O=C1NC(=O)C(c2ccc(-c3ccccc3)o2)O1` (stereo unspecified), 216 to 218 °C; in that of `O=C(NCc1cocn1)c1cc(-n2cnn(Cc3ccc(F)cc3)c2=O)n[nH]1`, 267 to 268 °C.
The molecule `CC(C)C(NC(=O)c1ccc(C(=O)NC(CCC(=O)O)C(=O)O)cc1)C(=O)N1CCCC1C(=O)NC(C(=O)C(F)(F)F)C(C)C` (mixture of isomers) displayed a melting point of 74 to 76 °C.
As to `Clc1cc(Cl)c2cccc3c2c1N=C3NCCCCCCCCCCn1ccnc1`, the melting point lay in the range of 129 to 131 °C.
For `CCOC(=O)C1C(=O)NC(=O)C(CCN(C)C)(c2cccc(OC)c2)C1CC` (stereo unspecified), the melting point lay within 160 to 162 °C.
Molecule `Cc1nc2cc3c(cc2o1)C1(CO3)C(=O)Nc2ccccc21` (stereo unspecified) registered a melting point of 242 to 244 °C.
Next, `O=C(Cc1cccc2ccccc12)N1CCC(c2nccc3occc23)CC1`: 50 °C.
Regarding `CN1CCN(c2ccc3nc(-c4ccc(F)cc4)c(I)n3n2)CC1`, the melting point worked out at 180 °C.
On to `COc1cccc2c1C=C(C(=O)O)C(C(F)(F)F)O2` (stereo unspecified), for which the melting point fell in the range of 204 to 207 °C.
The molecule `O=C(CN1CCOCC1)Nc1cccc2c1C(=O)c1c-2n[nH]c1-c1ccc(N2CCNCC2)cc1` had a melting point of 259 °C.
For the molecule `CSc1c2c(nn1C)N(c1c(C)cc(C)cc1C)CCC2`, the melting point lay in the range of 90.3 to 91.7 °C.
For the molecule `CCOC(=O)C1=C(C)NC(C)=C(C(=O)OC(C)C)C1c1ccccc1C#N` (stereo unspecified), the melting point amounted to 152 °C.
In the case of `Clc1ccc2nc(NCc3ccco3)nc(-c3ccccc3)c2c1` it was 142 °C; in that of `COc1ccc(N(C)c2ncnc3occ(C)c23)cc1`, 84 to 85.6 °C; in that of `COc1ccc(Cc2cc(C3CCCN(C(=O)c4ccc5c(c4)OCO5)C3)nc(N)n2)cc1` (stereo unspecified), 125 to 127 °C.
`Cc1ccc(C2Sc3cc(C)ccc3NC(=O)C2=O)cc1` (stereo unspecified) gave a melting point of 142 to 144 °C.
In turn, `COc1ccc(N2CCN(c3c(C)c(C)c4c(c3C)C(c3ccc(C(F)(F)F)cc3)C(C)(C)O4)CC2)cc1` (stereo unspecified) displayed a melting point of 208 to 211 °C.
Molecule `Nc1ncc(S(=O)c2cccnc2)s1` (stereo unspecified) yielded a melting point of 178 to 179 °C.
`CNS(=O)(=O)c1ccc(Oc2ccncc2)cc1` displayed a melting point of 125 to 127 °C.
`CN(C)c1ccc(O)c2c1CC1CC3C(N(C)C)C(O)=C(C(N)=O)C(=O)C3(O)C(O)=C1C2=O` (stereo unspecified) displayed a melting point of 113 °C.
`CCc1nc2c(cnn2CC)c(NC2CCOCC2)c1CNC(=O)c1cccc(C(=O)NCc2ccc(C)c(-c3cccc(C=O)c3)c2)c1`: the melting point fell in the range of 114 to 117 °C.
In the case of `CC(C)(C#N)c1cc(Cn2cncn2)cc(-c2ccc(OS(N)(=O)=O)cc2)c1`, the melting point is 74 to 76 °C.
Consider `Cc1ccc(S(=O)(=O)OCC2Cc3c[nH]c4cccc(c34)C(=O)N2)cc1` (stereo unspecified), for which the melting point fell in the range of 175 to 178 °C.
As for `CCOc1cccc(CSc2nc3cnccc3[nH]2)c1`, the melting point was 158 to 161 °C.
In the case of `O=C(O)CCCCCCC1C(=O)NC(=O)N1CCCCCc1ccccc1` (stereo unspecified) it was 90 to 92 °C.
With `CCOC(=O)c1c(C)[nH]c2ccccc12`, the melting point fell in the range of 96 to 98 °C.
In the case of `CN(C(=O)CN(C(=O)CNC(=O)Nc1cccc(O)c1)c1ccccc1)c1ccccc1` it was 180 °C; in that of `COc1c(Cc2c[nH]c3cccc(C(=O)O)c23)[nH]c(=O)c(CC(C)C)[n+]1[O-]`, 160 to 164 °C; in that of `O=C(CCCCCNC(=O)c1cccc2ccccc12)NO`, 118 to 119 °C.
Molecule `Cc1c(S(C)(=O)=O)c2cccc(Cl)c2n1CC1=NCCN1` showed a melting point of 206 to 208 °C.
The molecule `CCCCCCOc1cccc2c(OCCCCCC)cccc12` showed a melting point of 92 to 93 °C.
Molecule `NC(=O)CCc1cccc2c1C[C@@H](CCCCc1ccccc1)O2` came in with a melting point of 92 to 93 °C.
Molecule `CCN(CC)CCN=C1CC(c2ccc(Cl)c(Cl)c2)Cc2c1c(=O)c1cc(Cl)ccc1n2O` (stereo unspecified) yielded a melting point of 212 to 213 °C.
The molecule `Cc1cccc(C(=O)NC(Nc2c(Nc3cccnc3Cl)c(=O)c2=O)C(C)(C)Cc2ccccc2)c1` (stereo unspecified) registered a melting point of 234 to 235 °C.
As to `Cc1ccc(-c2cnn(-c3ccc(C)cc3)n2)cc1`, the melting point lay within 98 to 99 °C.
The molecule `O=S1(=O)c2cccc3cccc(c23)N1CCCN1CCC(CC2CCc3ccccc32)CC1` (stereo unspecified) displayed a melting point of 183 °C.
The molecule `CC(=O)N1CCCC2=C1CCc1cc(Cl)c(Cl)cc12` registered a melting point of 146 to 148 °C.
The molecule `O=C(O)c1oc2ccccc2c1CCc1ccccc1` displayed a melting point of 169 to 172 °C.
In turn, `O=C(O)CC1CCc2c(c3ccccc3n2Cc2ccccc2)C1` (stereo unspecified) registered a melting point of 156 to 158 °C.
For the molecule `O=C(CC1CCC(CC(=O)Oc2cc(O)cc(O)c2)CC1)Oc1cc(O)cc(O)c1` (stereo unspecified), the melting point lay in the range of 215 to 220 °C.
In the case of `CC(C)(C)OC(=O)Nc1ncc(-c2ccc(C#Cc3ccccc3)cc2)n1C(=O)OC(C)(C)C` it was 131 to 132 °C; in that of `CCOc1ccc(N2CC(C(=O)OC)CC2=O)cc1` (stereo unspecified), 67 to 69 °C.
Next, `CS(=O)c1ccc(-n2cnc3ccc(-c4nnc(S)o4)cc32)cc1` (stereo unspecified): 299 to 300 °C.
For the molecule `CN1c2ccc(C(C)(C)C)cc2[C@H]2Cc3ccccc3[C@H]21` (relative stereo), the melting point was determined as 74 °C.
As to `COCC#Cc1ccc(C(CC2CCCC2)C(=O)O)cc1` (stereo unspecified), the melting point lay within 82 to 85 °C.
`COc1cc2c(cc1OC)[C@H]([C@H](O)c1ccccc1)OC2=O` yielded a melting point of 113 to 115 °C.
The molecule `COC(=O)C1=C(S(=O)(=O)NC(=O)Nc2nc(OC)nc(OC)n2)CCC1` displayed a melting point of 168 to 169 °C.
On to `CC(=O)c1ccc2c(c1)CCc1ccc(C#N)cc1S2`, for which the melting point lay in the range of 138 to 141 °C.
With `Oc1ccc2c(c1)OCC(c1ccc(F)cc1)C2c1ccc(OCCCN2CCCCC2)cc1` (stereo unspecified), the melting point lay in the range of 78 to 84 °C.
For the molecule `CCCCCCNc1nc(N)nc2c1ncn2C1CC(F)C(CO)O1` (stereo unspecified), the melting point lay within 50 to 51 °C.
`COc1cccc2c1C[C@H]1C[C@@H](CCN3CCN(C(c4ccccc4)c4ccccc4)CC3)CN(C)[C@@H]1C2` came in with a melting point of 140 to 148 °C.
Next, `Cn1c(=O)[nH]c(N2CCc3ccccc3CC2)c(C#N)c1=O`: more than 200 °C; `COc1ccc2c(c1OCc1ccccc1)CCCC2=O`: 64 °C.
In the case of `COC(=O)c1cc2ccc(O)cc2o1` it was 176 to 177 °C; in that of `CCCCN(CCCC)c1ccc(C=Cc2ccc(C=CC3=C(C#N)C(=C(C#N)C#N)OC3(c3ccccc3)C(F)(F)F)cc2)c(OC)c1` (stereo unspecified), 176 to 178 °C; in that of `CS(=O)(=O)c1ccc(-n2nc(C(F)(F)F)cc2-c2ccc(-c3cccs3)cc2)cc1F`, 75 to 76 °C.
Turning to `CC(C)(C)c1ccccc1COc1ccc(N)nn1`, the melting point fell in the range of 147 to 149 °C.
`O=C(NC=Cc1ccc(O)cc1)c1ccc(Cl)cc1` yielded a melting point of 243 to 244 °C.
As to `O=C1N(c2cc(Cl)cc(Cl)c2)C(=O)[C@]2(Cc3ccc(Br)cc3)C[C@@H](O)CN12`, the melting point was 88.3 °C.
